Test results published in ChEMBL document CHEMBL1201862, “PubChem BioAssay data set” (2004).
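Five compound concentrations were applied to cells in 96-well plates for 48 hours; endpoints were derived by simple linear interpolation of the resulting dose-response curve. The concentration for 50% growth inhibition is given as GI50.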 Calls of active or inactive are those of the source. Rule as the data show it: active = GI50 up to about 1.1 µM and inactive = higher.

Assays:
Assay in all cases: DTP human tumour cell line panel, 48 h
HOP-18 = system: HOP-18
DMS-114 = system: DMS-114
DLD-1 = system: DLD-1
RXF 631 = system: RXF 631
SNB-78 = system: SNB-78
XF498 = system: XF498
LXFL 529 = system: LXFL 529
DMS-273 = system: DMS-273
KM-20L2 = system: KM-20L2

| Compound | GI50 (HOP-18) | GI50 (DMS-114) | GI50 (DLD-1) | GI50 (RXF 631) | GI50 (SNB-78) | GI50 (XF498) | GI50 (LXFL 529) | GI50 (DMS-273) | GI50 (KM-20L2) |
| --- | --- | --- | --- | --- | --- | --- | --- | --- | --- |
| CCOC(=O)/C(=C/c1cc(OC)ccc1OC)CC(=O)O | > 100 µM (inactive) | > 100 µM (inactive) | > 31.6 µM (inactive) | > 100 µM (inactive) | > 100 µM (inactive) | > 39.3 µM (inactive) | > 100 µM (inactive) | > 100 µM (inactive) | > 100 µM (inactive) |
| N#CC(=C1C=CC(=NO)C=C1)c1ccc(Cl)cc1 | 49 µM (inactive) | 15.4 µM (inactive) | 14.2 µM (inactive) |  |  |  | 4.97 µM (inactive) | 6.58 µM (inactive) | 19.7 µM (inactive) |
| CC(=O)O[C@]12CCCCC1C1(O)C(O)CCCCC12 (stereo partly specified) | > 100 µM (inactive) | > 100 µM (inactive) |  |  | > 100 µM (inactive) |  | > 100 µM (inactive) | > 100 µM (inactive) | > 100 µM (inactive) |
| O=C1CCC[C@]2(CCCC(=O)N2)C1 | > 100 µM (inactive) | > 100 µM (inactive) | > 100 µM (inactive) | > 100 µM (inactive) | > 94 µM (inactive) | > 100 µM (inactive) | > 100 µM (inactive) | > 100 µM (inactive) | > 100 µM (inactive) |
| C=C(COC(C)=O)CC(OC(C)=O)c1ccccc1 (stereo unspecified) |  | > 100 µM (inactive) | > 100 µM (inactive) |  | > 100 µM (inactive) | > 100 µM (inactive) | > 100 µM (inactive) | > 100 µM (inactive) | > 100 µM (inactive) |
| COc1ccc(NC(=O)CC(=O)n2nc(-c3ccccc3)c(/N=N/c3ccccc3C)c2-c2ccccc2)cc1 | 42.5 µM (inactive) | 24.3 µM (inactive) | 21.6 µM (inactive) | 33.7 µM (inactive) |  | 19.3 µM (inactive) | 40 µM (inactive) | 16.5 µM (inactive) | > 100 µM (inactive) |
| COc1cc(/C=N/N=C(\N)NO)c(Cl)cc1O |  | 24.3 µM (inactive) | > 10 µM (inactive) |  | > 100 µM (inactive) |  | > 100 µM (inactive) |  |  |
| COc1cc(C2C(Cl)C(=O)N2n2cnc3ccccc3c2=O)ccc1O (stereo unspecified) | 56.6 µM (inactive) | 89.1 µM (inactive) | > 100 µM (inactive) |  | > 100 µM (inactive) |  | > 100 µM (inactive) | > 100 µM (inactive) | > 100 µM (inactive) |
| CC1=C(N2CC2)C(=O)c2nc3n(c2C1=O)CCC3O (stereo unspecified) | 36.6 µM (inactive) | 1.03 µM (active) | 1.18 µM (inactive) |  | 0.0296 µM (active) | 14.9 µM (inactive) | 0.679 µM (active) | 0.469 µM (active) | 0.804 µM (active) |
| Cc1cc(C)cc(NC(=O)CCC(=O)C2CCC/C2=N\NC(=O)C(=O)NN)c1 (stereo unspecified) | > 100 µM (inactive) | > 100 µM (inactive) | > 100 µM (inactive) | > 100 µM (inactive) |  | > 100 µM (inactive) | > 100 µM (inactive) | > 100 µM (inactive) | > 100 µM (inactive) |
| [O-][S+]1CSSC1 | 51.4 µM (inactive) | 4.98 µM (inactive) | 18.7 µM (inactive) | 12.3 µM (inactive) | 20.3 µM (inactive) | 15.7 µM (inactive) | 13.5 µM (inactive) | 10.9 µM (inactive) | 22.8 µM (inactive) |
| C/C(=C\Cc1cc(O)ccc1O)CCc1c(C)cc(O)c(C=O)c1C [PANICEIN B3] | 17.8 µM (inactive) | 14.7 µM (inactive) | 21.6 µM (inactive) |  |  | 18.8 µM (inactive) | 15.4 µM (inactive) | 20.6 µM (inactive) | 39.9 µM (inactive) |
| COc1cc2c3cc1Oc1c(OC)c(OC)cc4c1[C@@H](Cc1ccc(O)c(c1)Oc1ccc(cc1)C[C@@H]3N(C)CC2)N(C)CC4.c1ccccc1 |  |  | 19.1 µM (inactive) |  | 47.1 µM (inactive) | 11.4 µM (inactive) | 12.4 µM (inactive) | 16.3 µM (inactive) | 5.32 µM (inactive) |
| CC1=C(/C=C/C2=CC(=C\C(=O)O)/CC(C3=C(C)CCCC3(C)C)C2)C(C)(C)CCC1 (stereo unspecified) | 14 µM (inactive) | 10.9 µM (inactive) | 12.2 µM (inactive) | 11.1 µM (inactive) | 20.7 µM (inactive) | 14.4 µM (inactive) | 13.8 µM (inactive) | 13.9 µM (inactive) |  |
| Cc1ccc(S(=O)(=O)c2ccc(C)cc2[N+](=O)[O-])c([N+](=O)[O-])c1 |  | > 100 µM (inactive) |  |  | > 100 µM (inactive) | > 100 µM (inactive) | > 100 µM (inactive) | > 100 µM (inactive) | > 100 µM (inactive) |
| Cc1ccc(S(=O)(=O)N(/N=C(\N)Oc2ccc(Cl)cc2)C(=N)Oc2ccc(Cl)cc2)cc1 | > 100 µM (inactive) | > 100 µM (inactive) | > 100 µM (inactive) |  | > 100 µM (inactive) | > 100 µM (inactive) | > 100 µM (inactive) | > 100 µM (inactive) | > 100 µM (inactive) |
| O=C1CC(c2ccccc2)=Nc2ccccc2N1 | > 100 µM (inactive) |  | > 100 µM (inactive) |  | > 100 µM (inactive) | > 100 µM (inactive) | > 100 µM (inactive) | > 100 µM (inactive) | > 100 µM (inactive) |
| O=C1CC(CC(=O)C2CCCCC2=O)C(=O)N1 (stereo unspecified) | > 100 µM (inactive) | > 100 µM (inactive) | > 100 µM (inactive) |  | > 100 µM (inactive) | > 100 µM (inactive) | > 100 µM (inactive) | > 100 µM (inactive) | > 100 µM (inactive) |
| N#CC1=C(O)NC(O)=C(C#N)C1c1ccc(C2C(C#N)=C(O)NC(O)=C2C#N)cc1 | > 100 µM (inactive) | > 100 µM (inactive) | 55.7 µM (inactive) | > 100 µM (inactive) | > 100 µM (inactive) | > 100 µM (inactive) | > 100 µM (inactive) | > 100 µM (inactive) | > 100 µM (inactive) |
| O=C1NC2(CCCC2)C2CCCCC12O (stereo unspecified) | > 100 µM (inactive) | > 100 µM (inactive) | > 100 µM (inactive) | > 100 µM (inactive) | > 100 µM (inactive) | > 100 µM (inactive) | > 100 µM (inactive) | > 100 µM (inactive) |  |
| CC1(C)CC(N2CCN(C3CC(C)(C)NC(C)(C)C3)CC2)CC(C)(C)N1 | > 100 µM (inactive) | > 100 µM (inactive) | > 100 µM (inactive) | > 100 µM (inactive) | > 100 µM (inactive) | > 100 µM (inactive) | > 100 µM (inactive) | > 100 µM (inactive) | > 100 µM (inactive) |
| COc1ccc(-c2oc3c(OC)c(OC)c(OC)c(O)c3c(=O)c2OC)cc1O |  | 0.0277 µM (active) | 0.432 µM (active) | 6.07 µM (inactive) | 0.0735 µM (active) | 0.279 µM (active) | 0.0582 µM (active) | < 0.01 µM (active) | 12.1 µM (inactive) |
| O=C1NC(=S)NC(=O)C1=Cc1ccc([N+](=O)[O-])o1 | 20.7 µM (inactive) | 17.8 µM (inactive) | 16 µM (inactive) | 19.3 µM (inactive) | 23.5 µM (inactive) | 31.6 µM (inactive) | 16.5 µM (inactive) | 18.9 µM (inactive) | 20.1 µM (inactive) |
| O=C(/C=C/c1ccc(Cl)c(Cl)c1)c1ccccc1Cl | 12.7 µM (inactive) | 5.3 µM (inactive) | 5.12 µM (inactive) | 15.9 µM (inactive) | 15.5 µM (inactive) | 19.2 µM (inactive) | 7.41 µM (inactive) | 6.47 µM (inactive) | 9.91 µM (inactive) |
| CCOC(=O)N1C/C(=C\c2ccccc2)C(=O)/C(=C/c2ccccc2)C1 | 20.3 µM (inactive) | 3.27 µM (inactive) | 2.56 µM (inactive) |  | 19.8 µM (inactive) | 12.8 µM (inactive) | 4.99 µM (inactive) | 2.34 µM (inactive) | 7.71 µM (inactive) |
